From ChEMBL document CHEMBL1240303, “Inhibiting transcription of chromosomal DNA with antigene peptide nucleic acids” (2005)
The source made the active and inactive calls. The rule behind the calls is not given here.

Legend:
T47D [1] = test: Inhibition of human progesterone receptor A protein expression transfected in human T47D cells at 200 nM by Western blot; assay type: functional
T47D [2] = test: Inhibition of human progesterone receptor B protein expression transfected in human T47D cells at 200 nM by Western blot; assay type: functional
T47D [3] = test: Inhibition of human progesterone receptor A protein expression transfected in human T47D cells at 200 nM in presence of 10 nM of estradiol by Western blot; assay type: functional, cell-based
T47D [4] = test: Inhibition of human progesterone receptor B protein expression transfected in human T47D cells at 200 nM in presence of 10 nM of estradiol by Western blot; assay type: functional, cell-based
T47D [5] = test: Inhibition of human progesterone receptor A gene expression transfected in human T47D cells at 200 nM by RT-PCR; assay type: functional, cell-based
T47D [6] = test: Inhibition of human progesterone receptor B gene expression transfected in human T47D cells at 200 nM by RT-PCR; assay type: functional, cell-based
T47D [7] = test: Induction of morphology changes in human T47D cells expressing human progesterone receptor assessed as increase in cell height by confocal microscopy; assay type: functional, cell-based
T47D [8] = test: Reduction in cell proliferation of human T47D cells expressing human progesterone receptor by FACS method; assay type: functional, cell-based
T47D [9] = test: Increase in Ezrin mRNA expression in human T47D cells expressing human progesterone receptor by RT-PCR relative to untreated control; assay type: functional
T47D [10] = test: Inhibition of human progesterone receptor A protein expression transfected in human T47D cells at 25 nM by Western blot; assay type: functional, cell-based
T47D [11] = test: Inhibition of human progesterone receptor B protein expression transfected in human T47D cells at 25 nM by Western blot; assay type: functional, cell-based

| Compound | inhibition at 0.2 µM (T47D [1]) [%] | inhibition at 0.2 µM (T47D [2]) [%] | inhibition (T47D [3]) | inhibition (T47D [4]) | inhibition (T47D [5]) | inhibition (T47D [6]) | Activity (T47D [7]) | Activity (T47D [8]) | fold change (FC) (T47D [9]) | inhibition (T47D [10]) | inhibition (T47D [11]) |
| --- | --- | --- | --- | --- | --- | --- | --- | --- | --- | --- | --- |
| Cc1cn(CC(=O)N(CCNC(=O)CN(CCNC(=O)CN(CCNC(=O)CN(CCNC(=O)CN(CCNC(=O)CN(CCNC(=O)CNC(=O)[C@@H](N)CCCCN)C(=O)Cn2cc(C)c(=O)[nH]c2=O)C(=O)Cn2cnc3c(=O)[nH]c(N)nc32)C(=O)Cn2cnc3c(N)ncnc32)C(=O)Cn2cnc3c(=O)[nH]c(N)nc32)C(=O)Cn2ccc(N)nc2=O)CC(=O)NCCN(CC(=O)NCCN(CC(=O)NCCN(CC(=O)NCCN(CC(=O)NCCN(CC(=O)NCCN(CC(=O)NCCN(CC(=O)NCCN(CC(=O)NCCN(CC(=O)NCCN(CC(=O)NCCN(CC(=O)NCCN(CC(=O)NCCN(CC(=O)NC(CCCCN)C(=O)O)C(=O)Cn2cc(C)c(=O)[nH]c2=O)C(=O)Cn2cnc3c(=O)[nH]c(N)nc32)C(=O)Cn2cnc3c(=O)[nH]c(N)nc32)C(=O)Cn2cnc3c(=O)[nH]c(N)nc32)C(=O)Cn2cnc3c(N)ncnc32)C(=O)Cn2cnc3c(N)ncnc32)C(=O)Cn2cnc3c(N)ncnc32)C(=O)Cn2ccc(N)nc2=O)C(=O)Cn2cnc3c(=O)[nH]c(N)nc32)C(=O)Cn2cnc3c(=O)[nH]c(N)nc32)C(=O)Cn2cnc3c(N)ncnc32)C(=O)Cn2cnc3c(N)ncnc32)C(=O)Cn2cnc3c(=O)[nH]c(N)nc32)c(=O)[nH]c1=O (stereo not given in full) | 75 | 75 | Active | Active | inactive | inactive | Active | Active | 8 |  |  |
| Cc1cn(CC(=O)N(CCNC(=O)CN(CCNC(=O)CNC(=O)[C@H](N)CCCCN)C(=O)Cn2c(N)ccnc2=O)CC(=O)NCCN(CC(=O)NCCN(CC(=O)NCCN(CC(=O)NCCN(CC(=O)NCCN(CC(=O)NCCN(CC(=O)NCCN(CC(=O)NCCN(CC(=O)NCCN(CC(=O)NCCN(C(=O)CNCCN(CC(=O)NCCN(CC(=O)NCCN(CC(=O)NCCN(CC(=O)NCCN(CC(=O)NCCN(CC(=O)NCCN(CC(=O)N[C@@H](CCCCN)C(=O)O)C(=O)Cn2c(N)ccnc2=O)C(=O)Cn2cnc3nc(N)[nH]c(=O)c32)C(=O)Cn2c(N)ccnc2=O)C(=O)Cn2c(N)ccnc2=O)C(=O)Cn2cc(C)c(=O)[nH]c2=O)C(=O)Cn2c(N)ccnc2=O)C(=O)Cn2cnc3c(N)ncnc32)C(=O)Cn2c(N)ccnc2=O)C(=O)Cn2cnc3nc(N)[nH]c(=O)c32)C(=O)Cn2cc(C)c(=O)[nH]c2=O)C(=O)Cn2c(N)ccnc2=O)C(=O)Cn2cnc3c(N)ncnc32)C(=O)Cn2c(N)ccnc2=O)C(=O)Cn2c(N)ccnc2=O)C(=O)Cn2cnc3c(N)ncnc32)C(=O)Cn2cnc3nc(N)[nH]c(=O)c32)C(=O)Cn2cc(C)c(=O)[nH]c2=O)c(=O)[nH]c1=O |  |  |  |  |  |  |  |  |  | inactive | inactive |
| Cc1cn(CC(=O)N(CCNC(=O)CN(CCNC(=O)CN(CCNCC(=O)N(CCNC(=O)CN(CCNC(=O)CN(CCNC(=O)CN(CCNC(=O)CN(CCNC(=O)CN(CCNC(=O)CN(CCNC(=O)CN(CCNC(=O)CN(CCNC(=O)CN(CCNC(=O)CN(CCNC(=O)CN(CCNC(=O)CNC(=O)[C@@H](N)CCCCN)C(=O)Cn2c(N)ccnc2=O)C(=O)Cn2cnc3c(N)ncnc32)C(=O)Cn2cc(C)c(=O)[nH]c2=O)C(=O)Cn2cnc3nc(N)[nH]c(=O)c32)C(=O)Cn2cnc3c(N)ncnc32)C(=O)Cn2c(N)ccnc2=O)C(=O)Cn2cnc3nc(N)[nH]c(=O)c32)C(=O)Cn2cnc3c(N)ncnc32)C(=O)Cn2c(N)ccnc2=O)C(=O)Cn2cc(C)c(=O)[nH]c2=O)C(=O)Cn2cnc3nc(N)[nH]c(=O)c32)C(=O)Cn2cnc3nc(N)[nH]c(=O)c32)C(=O)Cn2cnc3c(N)ncnc32)C(=O)Cn2c(N)ccnc2=O)CC(=O)NCCN(CC(=O)NCCN(CC(=O)NCCN(CC(=O)NCCN(CC(=O)N[C@@H](CCCCN)C(=O)O)C(=O)Cn2c(N)ccnc2=O)C(=O)Cn2c(N)ccnc2=O)C(=O)Cn2c(N)ccnc2=O)C(=O)Cn2c(N)ccnc2=O)c(=O)[nH]c1=O |  |  |  |  |  |  |  |  |  | Active | Active |
| Cc1cn(CC(=O)N(CCNC(=O)CNC(=O)[C@@H](N)CCCCN)CC(=O)NCCN(CC(=O)NCCN(CC(=O)NCCN(CC(=O)NCCN(CC(=O)NCCN(CC(=O)NCCN(CC(=O)NCCN(CC(=O)NCCN(CC(=O)NCCN(CC(=O)NCCN(CC(=O)NCCN(CC(=O)NCCN(CC(=O)NCCN(CC(=O)NCCN(CC(=O)NCCN(CC(=O)NCCN(CC(=O)NCCN(CC(=O)NCCN(CC(=O)N[C@@H](CCCCN)C(=O)O)C(=O)Cn2ccc(N)nc2=O)C(=O)Cn2cnc3c(=O)[nH]c(N)nc32)C(=O)Cn2cnc3c(=O)[nH]c(N)nc32)C(=O)Cn2cnc3c(N)ncnc32)C(=O)Cn2cnc3c(N)ncnc32)C(=O)Cn2cnc3c(=O)[nH]c(N)nc32)C(=O)Cn2cc(C)c(=O)[nH]c2=O)C(=O)Cn2ccc(N)nc2=O)C(=O)Cn2cnc3c(=O)[nH]c(N)nc32)C(=O)Cn2cnc3c(N)ncnc32)C(=O)Cn2cnc3c(=O)[nH]c(N)nc32)C(=O)Cn2cc(C)c(=O)[nH]c2=O)C(=O)Cn2ccc(N)nc2=O)C(=O)Cn2cnc3c(N)ncnc32)C(=O)Cn2cnc3c(=O)[nH]c(N)nc32)C(=O)Cn2cc(C)c(=O)[nH]c2=O)C(=O)Cn2cnc3c(N)ncnc32)C(=O)Cn2ccc(N)nc2=O)c(=O)[nH]c1=O | 75 | 75 | Active | Active | inactive | inactive | Active | Active | 6 |  |  |
| Cc1cn(CC(=O)N(CCNC(=O)CN(CCNC(=O)CN(CCNC(=O)CNC(=O)[C@@H](N)CCCCN)C(=O)Cn2cc(C)c(=O)[nH]c2=O)C(=O)Cn2cnc3c(=O)[nH]c(N)nc32)CC(=O)NCCN(CC(=O)NCCN(CC(=O)NCCN(CC(=O)NCCN(CC(=O)NCCN(CC(=O)NCCN(CC(=O)NCCN(CC(=O)NCCN(CC(=O)NCCN(CC(=O)NCCN(CC(=O)NCCN(CC(=O)NCCN(CC(=O)NCCN(CC(=O)NCCN(CC(=O)NCCN(CC(=O)NCCN(CC(=O)N[C@@H](CCCCN)C(=O)O)C(=O)Cn2ccc(N)nc2=O)C(=O)Cn2cnc3c(=O)[nH]c(N)nc32)C(=O)Cn2cnc3c(N)ncnc32)C(=O)Cn2ccc(N)nc2=O)C(=O)Cn2cnc3c(N)ncnc32)C(=O)Cn2ccc(N)nc2=O)C(=O)Cn2ccc(N)nc2=O)C(=O)Cn2cc(C)c(=O)[nH]c2=O)C(=O)Cn2cnc3c(=O)[nH]c(N)nc32)C(=O)Cn2cnc3c(N)ncnc32)C(=O)Cn2ccc(N)nc2=O)C(=O)Cn2ccc(N)nc2=O)C(=O)Cn2cnc3c(=O)[nH]c(N)nc32)C(=O)Cn2cnc3c(=O)[nH]c(N)nc32)C(=O)Cn2cc(C)c(=O)[nH]c2=O)C(=O)Cn2ccc(N)nc2=O)c(=O)[nH]c1=O | 75 | 75 | Active | Active | inactive | inactive | Active | Active | 5 | Active | Active |
| Cc1cn([C@@H]2O[C@H](COP(=O)(O)O[C@H]3[C@@H](O)[C@H](n4cnc5c(=O)[nH]c(N)nc54)O[C@@H]3COP(=O)(O)O[C@H]3[C@@H](O)[C@H](n4ccc(=O)[nH]c4=O)O[C@@H]3COP(=O)(O)O[C@H]3[C@@H](O)[C@H](n4cnc5c(N)ncnc54)O[C@@H]3COP(=O)(O)O[C@H]3C[C@H](n4ccc(N)nc4=O)O[C@@H]3COP(=O)(O)O[C@H]3[C@@H](O)[C@H](n4ccc(=O)[nH]c4=O)O[C@@H]3COP(=O)(O)O[C@H]3C[C@H](n4cnc5c(=O)[nH]c(N)nc54)O[C@@H]3COP(=O)(O)O[C@H]3[C@@H](O)[C@H](N4CC=C(N)NC4=O)O[C@@H]3COP(=O)(O)O[C@H]3[C@@H](O)[C@H](n4ccc(=O)[nH]c4=O)O[C@@H]3COP(=O)(O)O[C@H]3[C@@H](O)[C@H](n4cnc5c(=O)[nH]c(N)nc54)O[C@@H]3COP(=O)(O)O[C@H]3[C@@H](O)[C@H](n4cnc5c(N)ncnc54)O[C@@H]3COP(=O)(O)O[C@H]3[C@@H](O)[C@H](n4ccc(N)nc4=O)O[C@@H]3COP(=O)(O)O[C@H]3[C@@H](O)[C@H](n4ccc(N)nc4=O)O[C@@H]3COP(=O)(O)O[C@H]3[C@@H](O)[C@H](n4ccc(=O)[nH]c4=O)O[C@@H]3COP(=O)(O)O[C@H]3C[C@H](n4cnc5c(=O)[nH]c(N)nc54)O[C@@H]3COP(=O)(O)O[C@H]3[C@@H](O)[C@H](n4cnc5c(N)ncnc54)O[C@@H]3COP(=O)(O)O[C@H]3[C@@H](O)[C@H](n4cnc5c(=O)[nH]c(N)nc54)O[C@@H]3COP(=O)(O)O[C@H]3[C@@H](O)[C@H](n4cnc5c(=O)[nH]c(N)nc54)O[C@@H]3COP(=O)(O)O[C@H]3[C@@H](O)[C@H](n4cnc5c(=O)[nH]c(N)nc54)O[C@@H]3COP(=O)(O)O[C@H]3[C@@H](O)[C@H](n4cnc5c(=O)[nH]c(N)nc54)O[C@@H]3CO)[C@@H](OP(=O)(O)OC[C@H]3O[C@@H](n4cc(C)c(=O)[nH]c4=O)C[C@@H]3O)[C@H]2O)c(=O)[nH]c1=O |  |  |  |  |  |  |  |  |  | Active | Active |
